In ChEMBL document CHEMBL1126369, “(E)-1-alkyl-[2-(1H-azol-2-yl)vinyl]pyridinium salts: theoretical analysis, synthesis and evaluation of their interaction with choline acetyltransferase” (Bioorg Med Chem Lett, 1992):
Blank lines part the entries; values can stand above or below the molecule they belong to.

How the values were obtained:
[1] = molecular target: T1, Choline O-acetyltransferase (Gallus gallus) (UniProt Q90YJ9); test: Inhibition of chick optic lobe choline acetyltransferase (ChAT) at 10e-4 M
T1 sequence (whole entry): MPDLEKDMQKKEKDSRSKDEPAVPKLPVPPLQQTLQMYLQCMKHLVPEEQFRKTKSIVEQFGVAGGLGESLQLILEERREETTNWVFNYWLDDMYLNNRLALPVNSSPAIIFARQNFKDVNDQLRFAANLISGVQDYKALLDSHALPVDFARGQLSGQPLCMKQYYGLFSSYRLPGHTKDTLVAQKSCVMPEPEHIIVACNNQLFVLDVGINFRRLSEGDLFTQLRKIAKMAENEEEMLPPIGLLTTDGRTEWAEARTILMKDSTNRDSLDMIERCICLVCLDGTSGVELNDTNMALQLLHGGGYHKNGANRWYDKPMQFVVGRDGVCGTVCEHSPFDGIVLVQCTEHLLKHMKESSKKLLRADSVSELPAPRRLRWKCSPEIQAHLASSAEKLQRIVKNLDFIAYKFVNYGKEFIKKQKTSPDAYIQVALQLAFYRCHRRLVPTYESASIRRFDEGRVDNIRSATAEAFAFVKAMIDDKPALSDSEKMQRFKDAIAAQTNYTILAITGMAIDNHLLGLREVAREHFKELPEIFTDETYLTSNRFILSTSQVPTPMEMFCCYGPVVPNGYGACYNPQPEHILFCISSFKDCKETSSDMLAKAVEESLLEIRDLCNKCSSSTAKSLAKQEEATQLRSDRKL

[2] = molecular target: T2, Choline O-acetyltransferase (Gallus gallus, UniProt Q90YJ9); test: Compound was tested in vitro for inhibitory activity against chick optic lobe choline acetyltransferase (ChAT)
T2 sequence (Q90YJ9 whole entry): T1 sequence (whole entry)

[3] = molecular target: T2, Choline O-acetyltransferase; test: Compound was tested in vitro for inhibitory activity against chick choline acetyltransferase (ChAT)
[4] = molecular target: T3, Choline O-acetyltransferase (Rattus norvegicus, UniProt P32738); test: Compound was tested in vitro for inhibitory activity against rat choline acetyltransferase (ChAT)
T3 sequence (P32738 whole entry): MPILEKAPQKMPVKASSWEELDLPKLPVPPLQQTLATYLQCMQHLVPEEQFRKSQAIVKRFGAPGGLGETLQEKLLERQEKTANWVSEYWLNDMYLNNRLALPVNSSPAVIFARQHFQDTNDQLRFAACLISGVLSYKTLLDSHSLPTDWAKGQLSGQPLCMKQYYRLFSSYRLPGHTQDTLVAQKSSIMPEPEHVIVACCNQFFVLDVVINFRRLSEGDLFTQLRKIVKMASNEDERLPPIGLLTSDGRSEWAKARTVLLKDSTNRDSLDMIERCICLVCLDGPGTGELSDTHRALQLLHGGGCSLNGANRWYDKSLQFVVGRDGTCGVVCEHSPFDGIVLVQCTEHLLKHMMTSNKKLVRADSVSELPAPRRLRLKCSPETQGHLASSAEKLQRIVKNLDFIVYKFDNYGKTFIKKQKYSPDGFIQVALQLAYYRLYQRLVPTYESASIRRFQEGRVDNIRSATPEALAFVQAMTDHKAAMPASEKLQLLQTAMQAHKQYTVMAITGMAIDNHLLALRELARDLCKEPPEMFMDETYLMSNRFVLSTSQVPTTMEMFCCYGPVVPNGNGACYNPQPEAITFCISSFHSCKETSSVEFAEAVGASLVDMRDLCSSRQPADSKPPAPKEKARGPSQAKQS

inhibition [1]: < 1%
Compound: Cc1cc2nc(/C=C/c3cccnc3)[nH]c2cc1C

inhibition [1]: < 1%
Compound: Cc1cc2nc(/C=C/c3ccncc3)[nH]c2cc1C

inhibition [1]: < 1%
Compound: Cc1cc2nc(/C=C/c3cc[n+](C)cc3)[nH]c2cc1C

inhibition [1]: < 1%
Compound: Cc1cc2nc(/C=C/c3ccc[n+](C)c3)[nH]c2cc1C

inhibition [1]: < 1%
Compound: CCCC[n+]1cccc(/C=C/c2nc3cc(C)c(C)cc3[nH]2)c1

Second part, the molecule before the results:

Compound: CCC[n+]1ccc(/C=C/c2cccc3ccccc23)cc1
IC50 [2]: 29 µM
inhibition [1]: 80%
IC50 [3]: 58 µM
IC50 [4]: 30 µM

Compound: CCCCCCCCCC[n+]1ccc(/C=C/c2nc3cc(C)c(C)cc3[nH]2)cc1
inhibition [1]: < 1%

Compound: C[n+]1ccc(/C=N/c2nc3ccccc3[nH]2)cc1
inhibition [1]: < 1%

Compound: CCCC[n+]1ccc(/C=C/c2ncc[nH]2)cc1
inhibition [1]: < 1%

Compound: CCCC[n+]1ccc(/C=C/c2nc3cc(C)c(C)cc3[nH]2)cc1
inhibition [1]: < 1%

Compound: C(=C\c1cccc2ccccc12)/c1ccncc1
inhibition [1]: 5%

Compound: C[n+]1ccc(/C=C/c2cccc3ccccc23)cc1
IC50 [2]: 40 µM
inhibition [1]: 73%

Compound: NC(=O)C[n+]1ccc(/C=C/c2cccc3ccccc23)cc1
IC50 [2]: 37 µM
inhibition [1]: 78%
